System: isolierten Rattenherzen
Assay: Isolated rat heart, method II: coronary flow throttled by 75 %, prevention of the fall in contraction amplitude
Set-up: species or system Ratten
Conditions: Method II: coronary flow reduced by 75 %; substance added to perfusion medium during flow reduction; concentration needed to prevent the fall in contraction amplitude; read-out: Benötige Konzentrationen
Text: Wird ein, längere Zeit unter ischämischen Bedingungen gehaltenes, isoliertes Herz wieder normal perfundiert, so tritt keine sofortige Normalisierung der Herzfunktion ein. Es findet sich vielmehr eine vorübergehende Periode, die durch Kontraktur und Arrhytmien gekennzeichnet ist. Diese Arrhythmiephase ist durch Veränderungen von Funktion und Struktur der Myocardzelle mit intrazellulärer Calciumüberladung bedingt (Hess u. Manson, J. Mol. Cell. Cardiol. 16, 969, 1984). Cardioprotektiv wirksame Verbindungen wie Verapamil und Diltiazem verringern die Calciumüberladung und verbessern das Kontraktionsverhalten bei Reperfusion (Watts et al, Am. J. Physiol. 238, H 909, 1980; Meno et al, Am. J. Physiol. 247, H 380, 1984), Die cardioprotektive Wirkung wird an isolierten Rattenherzen unter Ischämie und anschließender Reperfusion untersucht.
Wird der Coronarfluß isolierter Herzen um 75 % gedrosselt, so reagiert das Herz zunächst mit einer Abnahme der Kontraktionsamplitude, ein Herzstillstand tritt erst innerhalb einer Stunde ein. Cardioprotektive Substanzen, während der Periode der Flußreduzierung dem Perfusionsmedium zugesetzt, verhindern den Abfall der Kontraktionsamplitude.

| SMILES | minimal effective concentration [µg/mL] |
| --- | --- |
| C=CCN(C1=NCCN1)c1c(Cl)cccc1Cl [Alinidin, reference compound] | 8.3 |
| COc1cc2c(cc1OC)C(C(CCc1ccccc1)C(=O)NCCc1ccncc1)NCC2 (stereo not drawn) [D] | 3 |
| CCCCNC(=O)C(CCc1ccccc1)C1NCCc2cc(OC)c(OC)cc21 (stereo not drawn) [E] | 1 |

— patent EP0358957A1, “Fused tetrahydropyridineacetic acid derivatives, process for their preparation, and use of such compounds for the cardioprotection” (BOEHRINGER INGELHEIM KG, priority 1988, dated 1990)
